Test results reported in ChEMBL document CHEMBL4177539, “Discovery of N-((3R,4R)-4-Fluoro-1-(6-((3-methoxy-1-methyl-1H-pyrazol-4-yl)amino)-9-methyl-9H-purin-2-yl)pyrrolidine-3-yl)acrylamide (PF-06747775) through Structure-Based Drug Design: A High Affinity Irreversible Inhibitor Targeting Oncogenic EGFR Mutants with Selectivity over Wild-Type EGFR” (J Med Chem, 2017).

Experiment: physchem
Settings: phosphate buffer with glutathione, pH 7.4

## C=CC(=O)Nc1cc2c(Nc3ccc(F)c(Cl)c3)ncnc2cc1OCCCN1CCOCC1 [CANERTINIB]
  half-life at 2 h, 1 µM: 21 min
